Common to all, as to format: functional
Test [1] is described as follows: Cytotoxicity against human BC1 cells after 72 hrs. The settings on record: BC1, 72 h, read-out: ED50 (the source's name).
For test [2], the system named is Col2. Put plainly: Cytotoxicity against human Col2 cells after 72 hrs. The settings on record: Col2, 72 h, read-out: ED50 (the source's name).
The test system of test [3] is HT-1080. Put plainly: Cytotoxicity against human HT1080 cells after 48 hrs. To be noted: HT-1080, 48 h, read-out: ED50 (the source's name).
Test [4] relates to Lu1. Nature of the test: Cytotoxicity against human Lu1 cells. The settings on record: read-out: ED50 (the source's name).
Test [5] relates to SK-MEL-2. Nature of the test: Cytotoxicity against human SK-MEL-2 cells after 72 hrs. To be noted: SK-MEL-2, 72 h, read-out: ED50 (the source's name).
Test [6] has as its system KB. Put plainly: Cytotoxicity against human KB cells after 72 hrs. To be noted: read-out: ED50 (the source's name).
The subject of test [7] is P388. Put plainly: Cytotoxicity against mouse P388 cells after 48 hrs. To be noted: P388, 48 h, read-out: ED50 (the source's name).

≈ marks a conversion by molar mass, not a printed value.

As to `C=C(C)[C@H]1Cc2c(ccc3c2O[C@@H]2COc4cc(OC)c(OC)cc4[C@@H]2C3=O)O1` [ROTENONE], the EC50 came to 0.039 µg/mL (≈ 0.0989 µM) in test [1]; 0.15 µg/mL (≈ 0.38 µM) in test [2]; 0.047 µg/mL (≈ 0.119 µM) in test [3]; 0.044 µg/mL (≈ 0.112 µM) in test [4]; 0.092 µg/mL (≈ 0.233 µM) in test [5]; 0.067 µg/mL (≈ 0.17 µM) in test [6]. Also, in test [7], the EC50 turned out to be 0.005 µg/mL (≈ 0.0127 µM).

These data come from ChEMBL document CHEMBL1147325, “13C-nmr spectral assignment and evaluation of the cytotoxic potential of rotenone” (1989).
